Assay [1] concerns the target human Class I PI3 kinase α (Homo sapiens (Human), UniProt P42336). Put plainly: PI3-Kinase Promega ADP-Glo Max assay, α isoform. The format is biochemical. Conditions: 20 nM kinase, 3 mM ATP, 500 uM diC8-PtdInsP; read-out: Promega α PI3K IC50. (ADP-Glo turns the ADP formed in a reaction into a luminescent signal.)
Description: Promega ADP-Glo Max assay kit (Cat. No. V7002) was utilized to determine IC50 values for α, β, δ and γ isoforms of human Class I PI3 kinases (Millipore). […] Reactions were incubated at room temperature for 2 hours followed by addition of 25 uL of stop solution. After a 40-minute incubation at room temperature, 50 uL of Promega detection mix was added followed by incubation for 1 hour at room temperature. Plates were then read on Envision plate reader in luminescence mode. Data was converted to % inhibition using the following equation below: [formula] where S is the sample luminescence, Pos is a positive control without added PI3K, Neg is the negative control without added compound. Data was then plotted as % inhibition vs compound concentration.
The target in assay [2] is human Class I PI3 kinase β (Homo sapiens (Human), UniProt P42338). Nature of the assay: PI3-Kinase Promega ADP-Glo Max assay, β isoform. It is filed as biochemical. Conditions: 40 nM kinase, 3 mM ATP, 500 uM diC8-PtdInsP; read-out: Promega β PI3K IC50.
Sequence of human Class I PI3 kinase β (P42338 whole entry, looked up, canonical isoform): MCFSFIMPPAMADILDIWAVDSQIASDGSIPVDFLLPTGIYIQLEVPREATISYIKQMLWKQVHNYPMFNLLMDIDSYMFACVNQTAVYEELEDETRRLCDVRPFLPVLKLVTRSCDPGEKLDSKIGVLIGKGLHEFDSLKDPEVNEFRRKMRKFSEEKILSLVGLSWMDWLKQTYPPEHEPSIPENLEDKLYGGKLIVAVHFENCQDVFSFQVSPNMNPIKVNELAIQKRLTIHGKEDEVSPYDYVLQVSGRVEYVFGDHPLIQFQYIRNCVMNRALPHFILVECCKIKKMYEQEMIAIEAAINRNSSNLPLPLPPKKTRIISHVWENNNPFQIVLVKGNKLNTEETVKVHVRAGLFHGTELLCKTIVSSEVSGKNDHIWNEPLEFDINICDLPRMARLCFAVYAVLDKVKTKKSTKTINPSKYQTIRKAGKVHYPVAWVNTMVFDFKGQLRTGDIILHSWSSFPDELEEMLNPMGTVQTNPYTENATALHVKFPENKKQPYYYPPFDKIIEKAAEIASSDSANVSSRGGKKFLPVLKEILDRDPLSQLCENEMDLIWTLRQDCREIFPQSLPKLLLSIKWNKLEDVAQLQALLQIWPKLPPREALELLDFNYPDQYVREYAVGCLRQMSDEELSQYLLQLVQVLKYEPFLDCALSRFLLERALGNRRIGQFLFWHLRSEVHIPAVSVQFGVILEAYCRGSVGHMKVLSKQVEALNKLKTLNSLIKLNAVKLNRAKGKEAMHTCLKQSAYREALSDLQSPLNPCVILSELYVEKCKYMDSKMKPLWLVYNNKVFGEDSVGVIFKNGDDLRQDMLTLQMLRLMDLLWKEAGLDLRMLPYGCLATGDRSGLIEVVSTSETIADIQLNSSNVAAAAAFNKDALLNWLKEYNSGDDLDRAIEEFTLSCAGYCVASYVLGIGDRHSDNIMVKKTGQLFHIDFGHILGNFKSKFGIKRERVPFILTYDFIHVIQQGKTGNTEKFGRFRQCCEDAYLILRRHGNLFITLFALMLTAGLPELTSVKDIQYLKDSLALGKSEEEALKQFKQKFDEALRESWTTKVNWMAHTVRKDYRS
Sequence of human Class I PI3 kinase β (P27986 whole entry partner, looked up, canonical isoform): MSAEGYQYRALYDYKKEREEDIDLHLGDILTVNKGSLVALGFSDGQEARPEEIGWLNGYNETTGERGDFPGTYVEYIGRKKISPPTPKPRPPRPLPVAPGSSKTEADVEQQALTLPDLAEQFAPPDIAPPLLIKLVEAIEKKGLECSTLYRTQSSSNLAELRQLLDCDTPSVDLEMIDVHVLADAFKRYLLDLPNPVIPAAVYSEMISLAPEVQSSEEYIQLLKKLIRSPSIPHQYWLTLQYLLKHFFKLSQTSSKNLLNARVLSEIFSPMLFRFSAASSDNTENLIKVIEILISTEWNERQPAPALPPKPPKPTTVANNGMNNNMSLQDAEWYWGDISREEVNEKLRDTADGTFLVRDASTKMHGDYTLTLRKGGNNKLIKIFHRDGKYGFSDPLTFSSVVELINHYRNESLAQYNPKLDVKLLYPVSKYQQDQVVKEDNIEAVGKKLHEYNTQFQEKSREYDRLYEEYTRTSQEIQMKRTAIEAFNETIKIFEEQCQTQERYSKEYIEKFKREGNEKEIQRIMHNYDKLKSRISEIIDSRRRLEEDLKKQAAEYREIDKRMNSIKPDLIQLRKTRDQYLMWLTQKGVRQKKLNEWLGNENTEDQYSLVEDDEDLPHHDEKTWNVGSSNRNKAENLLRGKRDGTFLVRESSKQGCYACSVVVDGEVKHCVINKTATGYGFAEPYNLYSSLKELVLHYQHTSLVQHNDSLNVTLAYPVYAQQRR
Description: Promega ADP-Glo Max assay kit (Cat. No. V7002) was utilized to determine IC50 values for α, β, δ and γ isoforms of human Class I PI3 kinases (Millipore). […] Reactions were incubated at room temperature for 2 hours followed by addition of 25 uL of stop solution. After a 40-minute incubation at room temperature, 50 uL of Promega detection mix was added followed by incubation for 1 hour at room temperature. Plates were then read on Envision plate reader in luminescence mode. Data was converted to % inhibition using the following equation below:
In assay [3] the target is human Class I PI3 kinase δ (Homo sapiens (Human), UniProt O00329). Nature of the assay: PI3-Kinase Promega ADP-Glo Max assay, δ isoform. The following applies: 20 nM kinase, 3 mM ATP, 500 uM diC8-PtdInsP; read-out: Promega δ PI3K IC50. The format is biochemical.
Sequence of human Class I PI3 kinase δ (O00329 whole entry, canonical isoform): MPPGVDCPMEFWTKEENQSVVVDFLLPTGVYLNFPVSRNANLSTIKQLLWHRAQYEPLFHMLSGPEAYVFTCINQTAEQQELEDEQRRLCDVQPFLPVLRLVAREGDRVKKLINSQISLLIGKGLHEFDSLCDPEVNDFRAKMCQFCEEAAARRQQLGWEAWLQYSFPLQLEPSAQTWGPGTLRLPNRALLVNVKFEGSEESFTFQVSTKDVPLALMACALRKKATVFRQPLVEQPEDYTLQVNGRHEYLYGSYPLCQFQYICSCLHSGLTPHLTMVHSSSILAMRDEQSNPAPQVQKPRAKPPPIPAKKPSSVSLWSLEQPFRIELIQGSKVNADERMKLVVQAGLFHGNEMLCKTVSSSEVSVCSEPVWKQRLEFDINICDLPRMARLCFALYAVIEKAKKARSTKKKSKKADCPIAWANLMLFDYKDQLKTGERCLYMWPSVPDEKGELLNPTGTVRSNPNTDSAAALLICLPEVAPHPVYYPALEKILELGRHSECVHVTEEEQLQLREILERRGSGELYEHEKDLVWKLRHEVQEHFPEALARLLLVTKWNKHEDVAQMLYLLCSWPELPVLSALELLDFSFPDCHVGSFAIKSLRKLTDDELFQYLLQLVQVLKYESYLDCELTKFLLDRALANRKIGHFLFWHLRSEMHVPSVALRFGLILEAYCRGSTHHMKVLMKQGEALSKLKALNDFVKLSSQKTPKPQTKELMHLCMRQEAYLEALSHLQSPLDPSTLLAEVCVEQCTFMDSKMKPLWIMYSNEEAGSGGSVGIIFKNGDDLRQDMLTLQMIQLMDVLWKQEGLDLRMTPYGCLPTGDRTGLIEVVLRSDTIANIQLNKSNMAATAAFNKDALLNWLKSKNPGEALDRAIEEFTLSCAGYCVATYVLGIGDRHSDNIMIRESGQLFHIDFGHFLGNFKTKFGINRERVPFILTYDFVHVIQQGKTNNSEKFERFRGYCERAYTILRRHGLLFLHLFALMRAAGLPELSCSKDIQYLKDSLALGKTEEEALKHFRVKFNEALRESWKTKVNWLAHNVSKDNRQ
Sequence of human Class I PI3 kinase δ (P27986 whole entry partner, canonical isoform): as the sequence (P27986 whole entry partner, looked up, canonical isoform) above
For assay [4], the target named is human Class I PI3 kinase γ (Homo sapiens (Human), UniProt P48736). Nature of the assay: PI3-Kinase Promega ADP-Glo Max assay, γ isoform. Conditions: 40 nM kinase, 3 mM ATP, 500 uM diC8-PtdInsP; read-out: Promega γ PI3K IC50. It is filed as biochemical. Here is the method: Promega ADP-Glo Max assay kit (Cat. No. V7002) was utilized to determine IC50 values for α, β, δ and γ isoforms of human Class I PI3 kinases (Millipore). Samples of kinase (20 nM α or δ, 40 nM β or γ isoform) were incubated with compound for 15 minutes at room temperature in reaction buffer (15 mM HEPES pH 7.4, 20 mM NaCl, 1 mM EGTA, 0.02% Tween 20, 10 mM MgCl2, 0.2 mg/mL bovine-γ-globulins) followed by addition of ATP/diC8-PtdInsP mixture to give final concentrations of 3 mM ATP and 500 uM diC8-PtdInsP. Reactions were incubated at room temperature for 2 hours followed by addition of 25 uL of stop solution. After a 40-minute incubation at room temperature, 50 uL of Promega detection mix was added followed by incubation for 1 hour at room temperature. Plates were then read on Envision plate reader in luminescence mode. Data was converted to % inhibition using the following equation below:
[formula] where S is the sample luminescence, Pos is a positive control without added PI3K, Neg is the negative control without added compound. Data was then plotted as % inhibition vs compound concentration.
Certain compounds provided herein were tested in PI3-Kinase Promega Assay using procedures as described above to determine IC50 values for α, β, δ and/or γ isoforms.

For a further assay, the target named is p110 δ (RAJI cells) (Homo sapiens (Human), UniProt O00329). Put plainly: PI3K-δ selective cellular assay: phospho-AKT in anti-human IgM stimulated RAJI cells. It is filed as cell-based. The following applies: serum-starved RAJI cells stimulated with anti-human IgM. From the text: A compound's ability in selectively inhibiting PI3K-δ can be assessed using RAJI cells, i.e., B lymphocyte cells derived from lymphoma patients. Briefly, serum-starved RAJI cells are stimulated with anti-human IgM, thereby causing signaling through the B-cell receptors, as described in, for example, He et al., Leukemia Research (2009) 33: 798-802. B-cell receptor signaling is important for the activation, differentiation, and survival of B cells and certain B-cell derived cancers. Reduction of phospho-AKT is indicative of compounds that may inhibit B-cell proliferation and function in certain diseases. […] Certain compounds provided herein were tested in RAJI cell model using procedures as described above.
Sequence of p110 δ (RAJI cells) (O00329 whole entry): as the sequence (O00329 whole entry, canonical isoform) above
Sequence of p110 δ (RAJI cells) (P27986 whole entry partner): as the sequence (P27986 whole entry partner, looked up, canonical isoform) above

For the next assay, the target named is p110 γ (RAW264.7 cells) (Mus musculus (Mouse), UniProt Q9JHG7). Nature of the assay: PI3K-γ selective cellular assay: phospho-AKT in C5a stimulated RAW264.7 macrophages. It is filed as cell-based. Conditions: serum-starved RAW264.7 cells stimulated with C5a. Here is the method:
Certain compounds provided herein were tested in RAW 264.7 cell model using procedures as described above.

For twelve molecules, IC50 results are on record in patent publication US9751888B2, “Heterocyclic compounds and uses thereof” (Infinity Pharmaceuticals, Inc., priority 2013, dated 2017).

Structures are written as SMILES.

Sequence of human Class I PI3 kinase α (P42336 whole entry, canonical isoform): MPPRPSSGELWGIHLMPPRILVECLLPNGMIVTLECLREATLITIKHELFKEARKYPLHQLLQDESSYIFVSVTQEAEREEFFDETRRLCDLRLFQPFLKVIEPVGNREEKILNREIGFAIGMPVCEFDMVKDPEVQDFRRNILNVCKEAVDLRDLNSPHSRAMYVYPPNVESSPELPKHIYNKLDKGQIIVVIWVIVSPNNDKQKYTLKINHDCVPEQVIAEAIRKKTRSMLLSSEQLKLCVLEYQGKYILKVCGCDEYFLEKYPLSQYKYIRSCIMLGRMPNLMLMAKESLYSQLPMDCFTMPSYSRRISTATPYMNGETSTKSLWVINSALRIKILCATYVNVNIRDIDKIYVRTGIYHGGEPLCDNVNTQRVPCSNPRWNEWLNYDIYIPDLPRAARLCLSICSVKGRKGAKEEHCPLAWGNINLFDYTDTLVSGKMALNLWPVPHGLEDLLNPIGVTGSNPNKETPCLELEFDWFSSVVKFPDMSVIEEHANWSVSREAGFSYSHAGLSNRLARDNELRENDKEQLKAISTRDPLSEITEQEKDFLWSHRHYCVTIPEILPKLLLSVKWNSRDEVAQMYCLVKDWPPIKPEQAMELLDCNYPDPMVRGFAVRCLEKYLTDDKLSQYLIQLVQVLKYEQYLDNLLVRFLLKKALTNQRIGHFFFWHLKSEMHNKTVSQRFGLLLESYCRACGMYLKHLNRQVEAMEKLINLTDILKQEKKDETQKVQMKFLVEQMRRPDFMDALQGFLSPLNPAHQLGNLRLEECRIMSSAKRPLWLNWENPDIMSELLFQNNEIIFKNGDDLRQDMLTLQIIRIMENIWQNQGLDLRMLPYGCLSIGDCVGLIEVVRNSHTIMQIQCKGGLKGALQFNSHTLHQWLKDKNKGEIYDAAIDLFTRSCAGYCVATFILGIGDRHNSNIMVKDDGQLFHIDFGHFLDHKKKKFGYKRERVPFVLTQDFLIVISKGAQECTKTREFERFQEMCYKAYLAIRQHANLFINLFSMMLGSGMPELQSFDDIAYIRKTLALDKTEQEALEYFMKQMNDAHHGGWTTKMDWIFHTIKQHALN
Sequence of human Class I PI3 kinase α (P27986 whole entry partner, canonical isoform): as the sequence (P27986 whole entry partner, looked up, canonical isoform) above

For the molecule `C[C@H](NC(=O)c1c(N)nn2cccnc12)c1cc2cccc(Cl)c2c(=O)n1-c1ccccc1S(C)(=O)=O` [Compound 83], the IC50 (as a rule, the concentration that inhibits the measured activity by half) is 1000 to 10000 nM in assay [1]; 1000 to 10000 nM in assay [2]; 1000 to 10000 nM in assay [3]; 1000 to 10000 nM in assay [4]; 1000 to 10000 nM on p110 δ (RAJI cells); 500 to 1000 nM against p110 γ (RAW264.7 cells).
In the case of `C[C@H](NC(=O)c1c(N)nn2cccnc12)c1cc2cccc(Cl)c2c(=O)n1-c1ccccc1F` [Compound 84], the IC50 was 1000 to 10000 nM in assay [1]; 100 to 500 nM in assay [2]; 500 to 1000 nM in assay [3]; 100 to 500 nM in assay [4]; 10 to 100 nM against p110 δ (RAJI cells); 10 to 100 nM against p110 γ (RAW264.7 cells).
Consider `COc1ccccc1-n1c([C@H](C)NC(=O)c2c(N)nn3cccnc23)cc2cccc(Cl)c2c1=O` [Compound 85], for which the IC50 was 1000 to 10000 nM in assay [1]; 500 to 1000 nM in assay [2]; 500 to 1000 nM in assay [3]; 100 to 500 nM in assay [4]; 100 to 500 nM at p110 δ (RAJI cells); 10 to 100 nM against p110 γ (RAW264.7 cells).
On to `C[C@H](NC(=O)c1c(N)nn2cccnc12)c1cc2cccc(OCC(F)(F)F)c2c(=O)n1-c1ccccc1` [Compound 86], for which the IC50 was 1000 to 10000 nM in assay [1]; 1000 to 10000 nM in assay [2]; 1000 to 10000 nM in assay [3]; 1000 to 10000 nM in assay [4]; 1000 to 10000 nM against p110 δ (RAJI cells); 100 to 500 nM on p110 γ (RAW264.7 cells).
Turning to `C[C@H](NC(=O)c1c(N)nn2cccnc12)c1nc2c(Cl)cccc2c(=O)n1-c1ccccc1` [Compound 87], the IC50 is 1000 to 10000 nM in assay [1]; 1000 to 10000 nM in assay [2]; 1000 to 10000 nM in assay [3]; 1000 to 10000 nM in assay [4]; 100 to 500 nM on p110 δ (RAJI cells); 100 to 500 nM against p110 γ (RAW264.7 cells).
For `CC(=O)Cc1cccc2nc([C@H](C)NC(=O)c3c(N)nn4cccnc34)n(-c3ccccc3)c(=O)c12` [Compound 89], the 50% inhibitory concentration (IC50) in assay [1] was in the range of 1000 to 10000 nM; in assay [2], 1000 to 10000 nM; in assay [3], 500 to 1000 nM; in assay [4] it was 500 to 1000 nM; against p110 δ (RAJI cells), 100 to 500 nM; against p110 γ (RAW264.7 cells), 10 to 100 nM.
Regarding `C[C@H](NC(=O)c1c(N)nn2cccnc12)c1nc2cccc(N3CCOCC3)c2c(=O)n1-c1ccccc1` [Compound 90], the IC50 in assay [1] lay within 1000 to 10000 nM; in assay [2] it was 1000 to 10000 nM; in assay [3] it was 1000 to 10000 nM; in assay [4], 1000 to 10000 nM; at p110 δ (RAJI cells), 1000 to 10000 nM; on p110 γ (RAW264.7 cells), 500 to 1000 nM.
Regarding `C[C@H](NC(=O)c1c(N)nn2cccnc12)c1nc2cccc(Cl)c2c(=O)n1-c1ccc(F)c(F)c1` [Compound 91], the IC50 in assay [1] was 1000 to 10000 nM; in assay [2], 1000 to 10000 nM; in assay [3] it was 1000 to 10000 nM; in assay [4], 500 to 1000 nM; against p110 δ (RAJI cells) it was 100 to 500 nM; on p110 γ (RAW264.7 cells) it was 10 to 100 nM.
For `Cc1cccc2c(=O)n(-c3ccccc3)c([C@H](C)NC(=O)c3c(N)nn4cccnc34)nc12` [Compound 92], the IC50 in assay [1] is 1000 to 10000 nM; in assay [2], 1000 to 10000 nM; in assay [3], 1000 to 10000 nM; in assay [4], 1000 to 10000 nM; against p110 δ (RAJI cells), 100 to 500 nM; against p110 γ (RAW264.7 cells), 100 to 500 nM.
Regarding `C[C@H](NC(=O)c1c(N)nn2cccnc12)c1cc2cccc(CC(=O)C(C)(C)C)c2c(=O)n1-c1ccccc1` [Compound 94], the IC50 in assay [1] was 1000 to 10000 nM; in assay [2], 1000 to 10000 nM; in assay [3], 1000 to 10000 nM; in assay [4] it was 1000 to 10000 nM; against p110 δ (RAJI cells), 500 to 1000 nM; against p110 γ (RAW264.7 cells), 100 to 500 nM.
As to `C[C@H](NC(=O)c1c(N)nn2cccnc12)c1nc2ccccc2c(=O)n1-c1ccccc1` [Compound 95], the IC50 in assay [1] fell in the range of 1000 to 10000 nM; in assay [2] it was 1000 to 10000 nM; in assay [3], 500 to 1000 nM; in assay [4] it was 100 to 500 nM; at p110 δ (RAJI cells), 10 to 100 nM; at p110 γ (RAW264.7 cells), 10 to 100 nM.
`C[C@H](NC(=O)c1c(N)nn2cccnc12)c1oc2ccc(F)cc2c(=O)c1-c1ccccc1` [Compound 96]: the IC50 in assay [1] lay within 1000 to 10000 nM; in assay [2], 1000 to 10000 nM; in assay [3], 1000 to 10000 nM; in assay [4] it was 1000 to 10000 nM; against p110 δ (RAJI cells), 100 to 500 nM; at p110 γ (RAW264.7 cells), 100 to 500 nM.
